Laboratory results as given in article PMC8922279, “Identification of β-Lactams Active against Mycobacterium tuberculosis by a Consortium of Pharmaceutical Companies and Academic Institutions” (ACS Infectious Diseases, 2022).

Assays:
E. coli = test: Microbial spectrum, E. coli; type: cell-based, Escherichia coli; settings: clavulanate 4 μg/mL; Table S4
Mtb H37Rv [1] = test: MIC90 against nonreplicating (NR, 4-stress) Mtb H37Rv, with or without clavulanate; type: cell-based, Mycobacterium tuberculosis; settings: 4-stress nonreplicating, Table S4; for Mtb H37Rv NR + CLAV (MIC90): clavulanate 4 μg/mL; for Mtb H37Rv NR (MIC90): no clavulanate
Mtb H37Rv [2] = test: MIC90 against replicating (R) Mtb H37Rv, with or without clavulanate; type: cell-based, Mycobacterium tuberculosis; settings: Table S4; for Mtb H37Rv R + CLAV (MIC90): clavulanate 4 μg/mL; for Mtb H37Rv R (MIC90): no clavulanate
S. aureus = test: Microbial spectrum, S. aureus; type: cell-based, Staphylococcus aureus; settings: clavulanate 4 μg/mL; Table S4
P. aeruginosa = test: Microbial spectrum, P. aeruginosa; type: cell-based, Pseudomonas aeruginosa; settings: clavulanate 4 μg/mL; Table S4
C. albicans = test: Microbial spectrum, C. albicans; type: cell-based, Candida albicans; settings: no clavulanate; Table S4

Compound: O=C(Cn1cnnn1)N[C@@H]1C(=O)N2C(C(=O)O)=C(CSc3cccc[n+]3[O-])CS[C@H]12 [TBBL-0000002]
- E.coli R + CLAV (MIC90) (E. coli): 15.3 µM
- Mtb H37Rv NR + CLAV (MIC90) (Mtb H37Rv [1]): 3 µM
- Mtb H37Rv NR (MIC90) (Mtb H37Rv [1]): 4.4 µM
- Mtb H37Rv R + CLAV (MIC90) (Mtb H37Rv [2]): 5.8 µM
- Mtb H37Rv R (MIC90) (Mtb H37Rv [2]): 5.7 µM
- S.aureus R + CLAV (MIC90) (S. aureus): 3.7 µM
- P.aeruginosa R + CLAV (MIC90) (P. aeruginosa): > 100 µM
- C.albicans R (MIC90) (C. albicans): > 100 µM

Compound: O=C(CSc1cccc[n+]1[O-])N[C@@H]1C(=O)N2C(C(=O)O)=C(CSc3cccc[n+]3[O-])CS[C@H]12 [TBBL-0000003]
- E.coli R + CLAV (MIC90) (E. coli): 44.1 µM
- Mtb H37Rv NR + CLAV (MIC90) (Mtb H37Rv [1]): 3.5 µM
- Mtb H37Rv NR (MIC90) (Mtb H37Rv [1]): 3.2 µM
- Mtb H37Rv R + CLAV (MIC90) (Mtb H37Rv [2]): 3.8 µM
- Mtb H37Rv R (MIC90) (Mtb H37Rv [2]): 4.8 µM
- S.aureus R + CLAV (MIC90) (S. aureus): 4.3 µM
- P.aeruginosa R + CLAV (MIC90) (P. aeruginosa): > 100 µM
- C.albicans R (MIC90) (C. albicans): > 100 µM

Compound: CC(=O)OC(C(=O)N[C@@H]1C(=O)N2C(C(=O)O)=C(CSc3cccc[n+]3[O-])CS[C@H]12)c1ccccc1 (stereo partly drawn) [TBBL-0000007]
- E.coli R + CLAV (MIC90) (E. coli): 85.1 µM
- Mtb H37Rv NR + CLAV (MIC90) (Mtb H37Rv [1]): 2.5 µM
- Mtb H37Rv NR (MIC90) (Mtb H37Rv [1]): 2.3 µM
- Mtb H37Rv R + CLAV (MIC90) (Mtb H37Rv [2]): 2.8 µM
- Mtb H37Rv R (MIC90) (Mtb H37Rv [2]): 2.3 µM
- S.aureus R + CLAV (MIC90) (S. aureus): 2.4 µM
- P.aeruginosa R + CLAV (MIC90) (P. aeruginosa): > 100 µM
- C.albicans R (MIC90) (C. albicans): > 100 µM

Compound: CC(=O)OCC1=C(C(=O)O)N2C(=O)[C@@H](NC(=O)CSc3nc4ccccc4s3)[C@H]2SC1 [TBBL-0000010]
- E.coli R + CLAV (MIC90) (E. coli): > 100 µM
- Mtb H37Rv NR + CLAV (MIC90) (Mtb H37Rv [1]): > 100 µM
- Mtb H37Rv NR (MIC90) (Mtb H37Rv [1]): > 100 µM
- Mtb H37Rv R + CLAV (MIC90) (Mtb H37Rv [2]): 3.9 µM
- Mtb H37Rv R (MIC90) (Mtb H37Rv [2]): 62 µM
- S.aureus R + CLAV (MIC90) (S. aureus): 0.2 µM
- P.aeruginosa R + CLAV (MIC90) (P. aeruginosa): > 100 µM
- C.albicans R (MIC90) (C. albicans): > 100 µM

Compound: O=C(Cc1csc(=O)s1)N[C@@H]1C(=O)N2C(C(=O)O)=C(CSc3nnnn3CCO)CS[C@H]12 [TBBL-0000305]
- E.coli R + CLAV (MIC90) (E. coli): 7.5 µM
- Mtb H37Rv NR + CLAV (MIC90) (Mtb H37Rv [1]): > 100 µM
- Mtb H37Rv NR (MIC90) (Mtb H37Rv [1]): > 100 µM
- Mtb H37Rv R + CLAV (MIC90) (Mtb H37Rv [2]): 2.1 µM
- Mtb H37Rv R (MIC90) (Mtb H37Rv [2]): 40.7 µM
- S.aureus R + CLAV (MIC90) (S. aureus): > 100 µM
- P.aeruginosa R + CLAV (MIC90) (P. aeruginosa): > 100 µM
- C.albicans R (MIC90) (C. albicans): > 100 µM

Compound: CCCn1nnnc1SCC1=C(C(=O)O)N2C(=O)[C@@H](NC(=O)Cc3ccc(C4=NCCN4)cc3)[C@H]2SC1 [TBBL-0000311]
- E.coli R + CLAV (MIC90) (E. coli): > 100 µM
- Mtb H37Rv NR + CLAV (MIC90) (Mtb H37Rv [1]): > 100 µM
- Mtb H37Rv NR (MIC90) (Mtb H37Rv [1]): > 100 µM
- Mtb H37Rv R + CLAV (MIC90) (Mtb H37Rv [2]): 0.8 µM
- Mtb H37Rv R (MIC90) (Mtb H37Rv [2]): 14.1 µM
- S.aureus R + CLAV (MIC90) (S. aureus): 0.9 µM
- P.aeruginosa R + CLAV (MIC90) (P. aeruginosa): > 100 µM
- C.albicans R (MIC90) (C. albicans): > 100 µM

Compound: C=CCn1nnnc1SCC1=C(C(=O)O)N2C(=O)[C@@H](NC(=O)Cc3ccc(C4=NCCN4)cc3)[C@H]2SC1 [TBBL-0000312]
- E.coli R + CLAV (MIC90) (E. coli): > 100 µM
- Mtb H37Rv NR + CLAV (MIC90) (Mtb H37Rv [1]): > 100 µM
- Mtb H37Rv NR (MIC90) (Mtb H37Rv [1]): > 100 µM
- Mtb H37Rv R + CLAV (MIC90) (Mtb H37Rv [2]): 0.8 µM
- Mtb H37Rv R (MIC90) (Mtb H37Rv [2]): 22.1 µM
- S.aureus R + CLAV (MIC90) (S. aureus): 1.1 µM
- P.aeruginosa R + CLAV (MIC90) (P. aeruginosa): > 100 µM
- C.albicans R (MIC90) (C. albicans): > 100 µM

Compound: CCn1nnnc1SCC1=C(C(=O)O)N2C(=O)[C@@H](NC(=O)Cc3ccc(C4=NCCN4)cc3)[C@H]2SC1 [TBBL-0000313]
- E.coli R + CLAV (MIC90) (E. coli): 11.6 µM
- Mtb H37Rv NR + CLAV (MIC90) (Mtb H37Rv [1]): > 100 µM
- Mtb H37Rv NR (MIC90) (Mtb H37Rv [1]): > 100 µM
- Mtb H37Rv R + CLAV (MIC90) (Mtb H37Rv [2]): 0.6 µM
- Mtb H37Rv R (MIC90) (Mtb H37Rv [2]): 17.3 µM
- S.aureus R + CLAV (MIC90) (S. aureus): 0.8 µM
- P.aeruginosa R + CLAV (MIC90) (P. aeruginosa): > 100 µM
- C.albicans R (MIC90) (C. albicans): > 100 µM

Compound: CCn1nnnc1SCC1=C(C(=O)O)N2C(=O)[C@@H](NC(=O)Cc3ccc(C4=NCCCN4)cc3)[C@H]2SC1 [TBBL-0000318]
- E.coli R + CLAV (MIC90) (E. coli): 60.5 µM
- Mtb H37Rv NR + CLAV (MIC90) (Mtb H37Rv [1]): > 100 µM
- Mtb H37Rv NR (MIC90) (Mtb H37Rv [1]): > 100 µM
- Mtb H37Rv R + CLAV (MIC90) (Mtb H37Rv [2]): 0.8 µM
- Mtb H37Rv R (MIC90) (Mtb H37Rv [2]): 24.5 µM
- S.aureus R + CLAV (MIC90) (S. aureus): 2 µM
- P.aeruginosa R + CLAV (MIC90) (P. aeruginosa): > 100 µM
- C.albicans R (MIC90) (C. albicans): > 100 µM
